In PMC9146698, “Mammalian Brain Ca^2+ Channel Activity Transplanted into Xenopus laevis Oocytes” (Membranes, 2022):

Tested on: T1, GABA receptor
T1 construct: gene Gabra1
Assay: two-electrode voltage clamp, membrane-transplanted oocytes
Type: cell-based, Mus musculus
Conditions: block of GABA-induced Cl- current; n = 5; data not shown

**Q.** How did the “% block at 100 μM” value turn out when `CN1CCc2cc3c(cc2[C@H]1[C@@H]1OC(=O)c2c1ccc1c2OCO1)OCO3` [biccuculine] was run?
**A.** The value was 87 ± 2%.
